Measured values reported in patent US20060148858A1, “1, 2-Azole derivatives with hypoglycemic and hypolipidemic activity” (priority 2002, published 2006).

Structure (SMILES) | melting point [°C]
CCCc1nn(-c2ccc(C(F)(F)F)cn2)cc1CCCCOc1ccc(CC(=O)O)cc1 [Example 88, [4-(4-{3-propyl-1-[5-(trifluoromethyl)-2-pyridyl]-1H-pyrazol-4-yl}butoxy)phenyl]acetic acid] | 121 to 122
CCCc1nn(-c2ccc(C(F)(F)F)cn2)cc1CCCCOc1ccc(CCC(=O)O)c(OC)c1 [Example 89, 3-[2-methoxy-4-(4-{3-propyl-1-[5-(trifluoromethyl)-2-pyridyl]-1H-pyrazol-4-yl}butoxy)phenyl]propionic acid] | 91 to 92
CCOc1nn(-c2ccccn2)cc1CCCOc1cccc(OC(C)(C)C(=O)O)c1 [Example 101, 2-(3-{3-[3-ethoxy-1-(2-pyridinyl)-1H-pyrazol-4-yl]propoxy}phenoxy)-2-methylpropanoic acid] | 99 to 101
CCOc1nn(-c2ccccn2)cc1CCCOc1cc(CCC(=O)O)n(-c2ccccc2)n1 [Example 103, 3-(3-{3-[3-ethoxy-1-(2-pyridinyl)-1H-pyrazol-4-yl]propoxy}-1-phenyl-1H-pyrazol-5-yl)propanoic acid] | 156 to 157
CCOc1nn(-c2ccccn2)cc1CCCOc1cccc(CC(=O)O)c1 [Example 106, (3-{3-[3-ethoxy-1-(2-pyridinyl)-1H-pyrazol-4-yl]propoxy}phenyl)acetic acid] | 66 to 67
CCOc1cc(OCCCCc2cn(-c3ccc(C(F)(F)F)cn3)nc2OCC)ccc1CCC(=O)O [Example 107, 3-[2-ethoxy-4-(4-{3-ethoxy-1-[5-(trifluoromethyl)-2-pyridinyl]-1H-pyrazol-4-yl}butoxy)phenyl]propanoic acid] | 101 to 102
CCOc1cc(OCCCc2cn(-c3ccccn3)nc2OCC)ccc1CCC(=O)O [Example 108, 3-(2-ethoxy-4-{3-[3-ethoxy-1-(2-pyridinyl)-1H-pyrazol-4-yl]propoxy}phenyl)propanoic acid] | 110 to 111
CCOc1nn(-c2ccccn2)cc1CCCOc1ccc(CCC(=O)O)cc1OC [Example 109, 3-(4-{3-[3-ethoxy-1-(2-pyridinyl)-1H-pyrazol-4-yl]propoxy}-3-methoxyphenyl)propanoic acid] | 92 to 93
CCOc1nn(-c2ccc(C(F)(F)F)cn2)cc1CCCOc1ccc(CCC(=O)O)c(OCc2ccccc2)c1 [Example 112, 3-[2-(benzyloxy)-4-(3-{3-ethoxy-1-[5-(trifluoromethyl)-2-pyridinyl]-1H-pyrazol-4-yl}propoxy)phenyl]propanoic acid] | 128 to 130
CCOc1cc(OCCCc2cn(-c3ccc(C(F)(F)F)cc3)nc2OCC)ccc1CCC(=O)O [Example 114, 3-[2-ethoxy-4-(3-{3-ethoxy-1-[4-(trifluoromethyl)phenyl]-1H-pyrazol-4-yl}propoxy)phenyl]propanoic acid] | 131 to 132
CCOc1nn(-c2ccc(C(F)(F)F)cc2)cc1CCCOc1ccc(CCC(=O)O)cc1OC [Example 115, 3-[4-(3-{3-ethoxy-1-[4-(trifluoromethyl)phenyl]-1H-pyrazol-4-yl}propoxy)-3-methoxyphenyl]propanoic acid] | 125 to 126
CCOc1nn(-c2ccc(C(F)(F)F)cn2)cc1CCCOc1cc(CC(=O)O)n(C)n1 [Example 119, [3-(3-{3-ethoxy-1-[5-(trifluoromethyl)-2-pyridinyl]-1H-pyrazol-4-yl}propoxy)-1-methyl-1H-pyrazol-5-yl]acetic acid] | 151 to 152
Cc1nn(-c2ccc(C(F)(F)F)cn2)cc1CCCOc1cc(CCC(=O)O)n(-c2ccccc2)n1 [Example 128, 3-[3-(3-{3-methyl-1-[5-(trifluoromethyl)-2-pyridyl]-1H-pyrazol-4-yl}propoxy)-1-phenyl-1H-pyrazol-5-yl]propionic acid] | 125 to 126
Cc1nn(-c2ccc(C(F)(F)F)cn2)cc1CCCOc1cccc(OC(C)(C)C(=O)O)c1 [Example 130, 2-methyl-2-[3-(3-{3-methyl-1-[5-(trifluoromethyl)-2-pyridyl]-1H-pyrazol-4-yl}propoxy)phenoxy]propionic acid] | 107 to 108
CC(C)(Oc1cccc(OCCCc2cn(-c3ccc(C(F)(F)F)cn3)nc2-c2ccccc2)c1)C(=O)O [Example 133, 2-methyl-2-[3-(3-{3-phenyl-1-[5-(trifluoromethyl)-2-pyridyl]-1H-pyrazol-4-yl}propoxy)phenoxy]propionic acid] | 141 to 142
O=C(O)Cc1ccccc1OCCCc1cn(-c2ccc(C(F)(F)F)cn2)nc1-c1ccccc1 [Example 134, [2-(3-{3-phenyl-1-[5-(trifluoromethyl)-2-pyridyl]-1H-pyrazol-4-yl}propoxy)phenyl]acetic acid] | 133 to 134
CCOc1nn(-c2ccc(C(F)(F)F)cn2)cc1CCCOc1nn(C)cc1CC(=O)O [Example 135, [3-(3-{3-ethoxy-1-[5-(trifluoromethyl)-2-pyridyl]-1H-pyrazol-4-yl}propoxy)-1-methyl-1H-pyrazol-4-yl]acetic acid] | 115 to 116
CCOc1nn(-c2ccc(C(F)(F)F)cn2)cc1CCCOc1nn(-c2ccccc2)cc1CC(=O)O [Example 136, [3-(3-{3-ethoxy-1-[5-(trifluoromethyl)-2-pyridyl]-1H-pyrazol-4-yl}propoxy)-1-phenyl-1H-pyrazol-4-yl]acetic acid] | 117 to 118
CCOc1nn(-c2ccc(C(F)(F)F)cn2)cc1CCCOc1ccc(Cl)cc1CC(=O)O [Example 139, [5-chloro-2-(3-{3-ethoxy-1-[5-(trifluoromethyl)-2-pyridyl]-1H-pyrazol-4-yl}propoxy)phenyl]acetic acid] | 130 to 131
Cc1nn(-c2ccc(C(F)(F)F)cn2)cc1CCCOc1ccccc1CC(=O)O [Example 141, [2-(3-{3-methyl-1-[5-(trifluoromethyl)-2-pyridyl]-1H-pyrazol-4-yl}propoxy)phenyl]acetic acid] | 128 to 129

Results, then the compound that gave them:

melting point [°C] | Structure (SMILES)
104 to 106 | CCCc1nn(-c2ccc(C(F)(F)F)cn2)cc1CCCOc1ccc(OC)c(CCC(=O)O)c1 [Example 81, 3-[2-methoxy-5-(3-{3-propyl-1-[5-(trifluoromethyl)-2-pyridinyl]-1H-pyrazol-4-yl}propoxy)phenyl]propanoic acid]
118 to 119 | CCCc1nn(-c2ccc(C(F)(F)F)cn2)cc1CCCOc1ccc(CCC(=O)O)cc1 [Example 82, 3-[4-(3-{3-propyl-1-[5-(trifluoromethyl)-2-pyridyl]-1H-pyrazol-4-yl}propoxy)phenyl]propionic acid]
87 to 88 | CCCc1nn(-c2ccc(C(F)(F)F)cn2)cc1CCCOc1ccccc1CCC(=O)O [Example 83, 3-[2-(3-{3-propyl-1-[5-(trifluoromethyl)-2-pyridyl]-1H-pyrazol-4-yl}propoxy)phenyl]propionic acid]
97 to 98 | CCCc1nn(-c2ccc(C(F)(F)F)cn2)cc1CCCOc1cccc(CCC(=O)O)c1 [Example 84, 3-[3-(3-{3-propyl-1-[5-(trifluoromethyl)-2-pyridyl]-1H-pyrazol-4-yl}propoxy)phenyl]propionic acid]
119 to 120 | CCCc1nn(-c2ccc(C(F)(F)F)cn2)cc1CCCOc1nn(C)cc1CC(=O)O [Example 87, [1-methyl-3-(3-{3-propyl-1-[5-(trifluoromethyl)-2-pyridyl]-1H-pyrazol-4-yl}propoxy)-1H-pyrazol-4-yl]acetic acid]
111 to 112 | CCCc1nn(-c2ccc(C(F)(F)F)cn2)cc1CCCOc1ccc(F)c(CC(=O)O)c1 [Example 90, [2-fluoro-5-(3-{3-propyl-1-[5-(trifluoromethyl)-2-pyridyl]-1H-pyrazol-4-yl}propoxy)phenyl]acetic acid]
147 to 148 | CCCc1nn(-c2ccc(C(F)(F)F)cn2)cc1CCCOc1cc(CCC(=O)O)ccc1OC [Example 93, 3-[4-methoxy-3-(3-{3-propyl-1-[5-(trifluoromethyl)-2-pyridyl]-1H-pyrazol-4-yl}propoxy)phenyl]propionic acid]
135 to 136 | CCCc1nn(-c2ccc(C(F)(F)F)cn2)cc1CCCOc1ccc(CC(=O)O)c(OC)c1 [Example 95, [2-methoxy-4-(3-{3-propyl-1-[5-(trifluoromethyl)-2-pyridyl]-1H-pyrazol-4-yl}propoxy)phenyl]acetic acid]
135 to 136 | CCCc1nn(-c2ccc(C(F)(F)F)cn2)cc1CCCOc1ccc(OC)c(CC(=O)O)c1 [Example 97, [2-methoxy-5-(3-{3-propyl-1-[5-(trifluoromethyl)-2-pyridinyl]-1H-pyrazol-4-yl}propoxy)phenyl]acetic acid]
153 to 154 | CCCc1nn(-c2ccc(C(F)(F)F)cn2)cc1COc1ccc(CCC(=O)O)c(OC)c1 [Example 120, 3-[2-methoxy-4-({3-propyl-1-[5-(trifluoromethyl)-2-pyridyl]-1H-pyrazol-4-yl}methoxy)phenyl]propionic acid]
129 to 130 | CCCc1nn(-c2ccc(C(F)(F)F)cn2)cc1COc1ccc(CCC(=O)O)c(C)c1 [Example 121, 3-[2-methyl-4-({3-propyl-1-[5-(trifluoromethyl)-2-pyridyl]-1H-pyrazol-4-yl}methoxy)phenyl]propionic acid]
138 to 139 | CCOc1nn(-c2ccc(C(F)(F)F)cn2)cc1CCCOc1ccc(OC)cc1CC(=O)O [Example 132, [2-(3-{3-ethoxy-1-[5-(trifluoromethyl)-2-pyridyl]-1H-pyrazol-4-yl}propoxy)-5-methoxyphenyl]acetic acid]
104 to 105 | CCOc1ccc(OCCCc2cn(-c3ccc(C(F)(F)F)cn3)nc2OCC)c(CCC(=O)O)c1 [Example 140, 3-[2-(3-{3-ethoxy-1-[5-(trifluoromethyl)-2-pyridyl]-1H-pyrazol-4-yl}propoxy)-5-ethoxyphenyl]propionic acid]
147 to 148 | CCOc1nn(-c2ccc(C(F)(F)F)cn2)cc1CCCOc1cc(OC)ccc1CC(=O)O [Example 142, [2-(3-{3-ethoxy-1-[5-(trifluoromethyl)-2-pyridyl]-1H-pyrazol-4-yl}propoxy)-4-methoxyphenyl]acetic acid]
